The subject of one assay is adult female rats. In words: Post-coital antifertility efficacy in adult female rats. Particulars: oral. It counts as in vivo, rat. The text has this:
Adult female rats are caged overnight with coeval males of proven fertility and their vaginal smears are checked on the following morning. The day of presence of spermatozoa in the vaginal smear is taken as day 1 of pregnancy. Mated rats are isolated and randomized into various treatment groups and treated orally with the compound of invention or the vehicle on days 1-7/1-5 post-coitum. Animals of all the groups are autopsied on day 10 post-coitum and number and status of corpora lutea and implantation sites in each rat are recorded. The compounds of the present invention are considered active if there is complete absence of implantations in the uterus of all rats, in comparison to presence of normal implantations in the uterus of rats of vehicle control group.

The subject of assay [1] is immature ovariectomized rats. Nature of the assay: Estrogen agonistic activity: increase in uterine weight in immature ovariectomized rats. Type of assay: in vivo, rat. The conditions noted are these: 3 days, percent of ovariectomized + vehicle group; for change in vivo at 3 mg/kg / change in vivo at 10 mg/kg: Rattus norvegicus, 72 h; for change in vivo at 3 mg/kg: daily dose 3 mg/kg. As to the method: Twenty-one-day-old immature female rats are bilaterally ovariectomized under light ether anaesthesia and, after post-operative rest for 7 days, are randomized into different treatment groups. Each rat receives the compound of the invention once daily for 3 consecutive days on days 28-30 of age. A separate group of animals receiving only the vehicle for similar duration serves as control. A autopsy 24 h after the last treatment on day 31 of age, vaginal smear of each rat is taken and uterus is carefully exised, gently blotted, weighed and fixed for histology and histomorphometry using image analysis. Premature opening of vagina, cornification of vaginal epitelium, increase in uterine fresh weight, total uterine and endometrial area and uterine luminal epithelial cell height are taken as parameters for evaluation of estrogen agonistic activity in comparision to rats of vehicle control group.

The subject of assay [2] is immature ovariectomized rats. Nature of the assay: Estrogen antagonistic activity: inhibition in 17α-ethynylestradiol induced uterine weight gain in immature ovariectomized rats. Type of assay: in vivo, rat. The conditions noted are these: daily dose 10 mg/kg with 0.02 mg/kg 17-alfa-ethynylestradiol, 3 days; for inhibition in vivo at 10 mg/kg/day: Rattus norvegicus, 72 h, read-out: Percent inhibition in 17α-ethynylestradiol induced uterine weight gain. As to the method:
Twenty-one-day-old immature female rats are bilaterally ovariectomized under light ether anaesthesia and after post-operative rest for 7 days, are randomized into different treatment groups. Each rat receives the compounds of the invention and 0.02 mg/kg dose of 17-alfa-ethynylestradiol in 10% ethanol-distilled water once daily for 3 consecutive days on days 28-30 of age. A separate group of animals receiving only 17-alfa-ethynylestradiol (0.02 mg/kg) in 10% ethanol-distilled water for similar duration are used for comparison. At autopsy on day 31 of age, vaginal smear of each rat is taken and uterus is carefully excised, gently blotted, weighed and fixed for histology and histomorphometry using image analysis. Inhibition in 17-alfa-ethynylestradiol-induced premature opening of vagina, cornification of vaginal epithelium, increase in uterine fresh weight, total uterine and endometrial area and uterine luminal epithelial cell height are taken as parameters for evaluation of estrogen antagonistic activity.

For another assay, the system named is MCF-7 cells. Nature of the assay: Antiproliferative/cytotoxic activity in cultured MCF-7 cells (SRB assay). Type of assay: cell-based. The conditions noted are these: Homo sapiens, MCF7, 48 h, MCF-7, 48 h. As to the method: The procedure is based on the following methods: New calorimetric assay for anticancer drug screening, Skehan et al., J Natn Cancer Inst, 82,1107, 1990 and Feasibility of a high-flux anticancer drug screen using a diverse panel of cultured human tumor cell lines, J Natn Cancer Inst, 83,757, 1991.
A fully confluent flask of MCF-7 cells in trypsinized and 10^4 cells/well are plated in a 96 welled flat bottomed plate in 200 μl Minimum Essential Medium (MEM), pH 7.4 and allowed to attach for 24 h at 37° C. in a humidified CO2 incubator. Subsequently, the compound of invention dissolved in DMSO or ethanol is added at a specified concentration and further incubated for 48 h as before. The cells are then fixed in 50 μl cold 50% TCA and incubated for 1 h at 4° C. The supernatant is discarded and the plate is washed five times with deionized water and air-dried. 100 μl of 0.4% (w/v) Sulforhodamine B (SRB) in 1% acetic acid is added to each well and incubated at room temperature for 30 minutes. Unbound SRB is removed by five washes with chilled 1% acetic acid and the plate is air-dried. 200 μl of unbuffered 10 mM Tris base is added to solublize the bound stain for 5 minutes at room temperature and O.D. is read at 560 nm in a plate reader. The graph is plotted between O.D. and concentration and LC50 is calculated with respect to tamoxifen, which is used as a positive control.
Background: The SRB assay estimates cell density from bound dye.

The subject of assay [3] is chick fetal bones in culture. Nature of the assay: Inhibition in PTH-induced resorption of 45Ca from chick fetal bones in culture (antiresorptive activity in vitro). Particulars: Gallus gallus, 96 h, 100 μM; PTH-induced 45Ca resorption, 96 h culture; read-out: T/C ratio. Type of assay: cell-based. As to the method: 5 μl of each concentration are used for evaluation of antiresorptive activity in vitro. In control experiments, 5 μl of appropriate solvent is used in lieu of the test compound. Femur bones are isolated from chick embryos on day 11 post-ovulation. The adhering soft connective tissue is completely removed. Each femur bone is then placed in a drop of phosphate buffered saline (PBS) and is transferred to BGJb culture medium containing ^45CaCl2 and incubated for 2 h. Labeled femur bones are washed 2-3 times with PBS and transferred to BGJb medium containing parathyroid hormone and cultured for 96 h in the presence or absence of the compound of invention or the vehicle in BGJb medium. Contralateral femur of each fetus serves as corresponding control. Culture medium with the respective treatment in each well is changed after 48 h. On termination of the culture at 96 h, bones are transferred to 0.1 N HCl for 24 h. Radioactivity due to ^45Ca in the spent medium collected at 48 and 96 h of culture and HCl extract at 96 h of culture is quantified by Liquid Scintillation Spectrophotometer in 10 ml of the scintillation fluid. Bone resorbing activity is expressed as percentage of ^45Ca released into the culture medium and the effect of the compound of invention as percent of the corresponding contra-lateral control or T/C ratio as shown below: [formula]
Appropriate solvents are selected from solvents like water, physiological saline, phosphate buffered saline, phosphate buffer, DMSO alone or in a suitable combination thereof.

The target of a further assay is T1, estrogen receptors (Rattus norvegicus, UniProt P06211).
T1 construct: Aliquot of uterine cytosol (200 μl; 2 uteri per ml) prepared in TEA buffer; from tissue; host or cells: uterine cytosol of immature estradiol-primed 20-21 day old rats
T1 sequence (P06211 1-600): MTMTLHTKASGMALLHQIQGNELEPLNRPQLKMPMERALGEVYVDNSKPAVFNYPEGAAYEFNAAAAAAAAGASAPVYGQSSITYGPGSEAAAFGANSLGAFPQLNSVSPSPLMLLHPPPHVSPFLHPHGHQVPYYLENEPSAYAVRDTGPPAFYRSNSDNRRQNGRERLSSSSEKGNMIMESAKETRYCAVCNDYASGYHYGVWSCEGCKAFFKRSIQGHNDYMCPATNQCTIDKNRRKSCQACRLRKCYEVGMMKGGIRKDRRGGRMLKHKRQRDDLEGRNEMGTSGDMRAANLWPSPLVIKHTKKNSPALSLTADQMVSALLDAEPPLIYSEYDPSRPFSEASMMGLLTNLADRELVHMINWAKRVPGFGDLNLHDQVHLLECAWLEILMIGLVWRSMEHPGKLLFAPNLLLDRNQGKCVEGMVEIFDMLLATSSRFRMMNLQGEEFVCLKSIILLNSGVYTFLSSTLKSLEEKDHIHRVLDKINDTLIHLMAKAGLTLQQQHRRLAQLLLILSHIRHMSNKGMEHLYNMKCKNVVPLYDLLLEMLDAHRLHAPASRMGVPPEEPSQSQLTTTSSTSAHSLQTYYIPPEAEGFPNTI
Nature of the assay: Relative binding affinity (RBA) to estrogen receptors, 3H-estradiol competition assay. On the set-up: key: % of 17-beta-estradiol binding affinity (estradiol = 100). The conditions noted are these: relative to 17-beta-estradiol (=100, percentage value); rat uterine cytosol, 3H-E2, 18 hrs at 4° C. As to the method: The relative binding affinity (RBA) of the compounds for estrogen receptor is determined by competition assay, employing ^3H-estradiol (^3H-E2) as the radioligand. The test ligands and ^3H-E2 are incubated at 4° C. with cystol estrogen receptors obtained from uteri of immature estradoil-primed (1 μg/rat 24 h before autopsy) 20-21 days old rats. Aliquot of uterine cytosol (200 μl; 2 uteri per ml) prepared in TEA buffer (10 mM Tris, 1.5 mM EDTA, 0.02% sodium azide, pH 7.4) are incubated in duplicate with a fixed concentration of ^3H-E2 in the absence or presence of various concentrations of the competitor substance dissolved in 30 μl of the TEA buffer containing DMF as co-solvent (final concentration of DMF in the incubation mixture never exceeded 5%) for 18 hrs at 4° C. At the end of this period, dextran coated charcoal (5% Norit 0.5% dextran) suspension in 100 μl of TEA buffer is added to each tube, briefly vortexed and allowed to stand for 15 minutes at 4° C. The mixture is centrifuged at 800 g for 10 minutes and the supernatants counted for radioactivity in 10 ml of a dioxane-based scintillation fluid. RBA of the text compound is computed from a graph plotted between percent bound radioactivity verses log concentration of the test substance. […] This when multiplied with 100 gives the percentage value designated as RBA.

[4] abbreviates: daily dose 10 mg/kg, days 1-7 post-coitum.

These results are taken from patent US20050282863A1, “Novel-N substituted dihydrobenzothiepino, dihydrobenzoxepino and tetrahydro benzocyclohepta indoles as selective estrogen receptor modulators” (Council of Scientific & Industrial Research, priority 2004, published 2005).

The structures appear in SMILES notation. Read-outs that look alike come from different tables or passages of the source.

Consider `c1ccc2c(c1)SCCc1c-2n(CCCN2CCCCC2)c2ccccc12` [Example number 7, 12-[3-(Piperidine-1-yl)propyl]-6,7-dihydro-12H-benzothiepino [5,4-b]indole], for which the “% Efficacy” value in the assay on adult female rats (setting [4]) is “Inactive”. Besides, the change in vivo at 3 mg/kg in assay [1] was determined as 24.6%. In addition, the change in vivo at 10 mg/kg in assay [1] (daily dose 10 mg/kg) is 109%. For the same compound, the inhibition in vivo at 10 mg/kg/day in assay [2] came out at 15.4%. For the same compound, the CC50 in the assay with MCF-7 cells (read-out: LC50, Test-1) was 46 µM.
`c1ccc2c(c1)SCCc1c-2n(CCCCCN2CCCC2)c2ccccc12` [Example number 12, 12-[5-(Pyrrolidine-1-yl)pentyl]-6,7-dihydro-12H-benzothiepino [5,4-b]indole]: the “% Efficacy” value in the assay on adult female rats (setting [4]) is recorded as “Inactive”. In addition, the activity at 100 µM in assay [3] is 78%. In addition, in assay [1], the change in vivo at 3 mg/kg came out at 3.4%. Further, in the assay with MCF-7 cells (read-out: LC50, Test-1), the CC50 turned out to be 63 µM. In addition, the RBA at estrogen receptors was found to be 0.88.
For the compound `CCCCN(C)CCCCCn1c2c(c3ccccc31)CCSc1ccccc1-2.O=C(O)/C=C/C(=O)O` [Example number 16, 12-[5-(N-butylmethylamino)pentyl]-6,7-dihydro-12H-benzothiepino [5,4-b]indole fumaric acid Salt], in assay [1] (daily dose 10 mg/kg), the “Percent increase in uterine weight” value was 2.00%. Further, the “Percent inhibition in 17α-ethynylestradiol induced uterine weight gain” value in assay [2] worked out at 2.00%. In addition, the RBA at estrogen receptors is under 0.001.
For `Oc1ccc2c(c1)SCCc1c-2n(CCCCCN2CCCCC2)c2ccccc12` [Example number 24, 3-Hydroxy-12-[5-(piperidine-1-yl)pentyl]-6,7-dihydro-12H-benzothiepino [5,4-b]indole], the “% Efficacy” value with adult female rats (setting [4]) is “Inactive”. In addition, the activity at 100 µM in assay [3] came out at 78%. Besides, in the assay with MCF-7 cells (read-out: LC50, Test-4), the CC50 stood at 27 µM. Further, the RBA at estrogen receptors was found to be 10.75.
For `Oc1ccc2c(c1)SCCc1c-2n(CCCCCN2CCCCC2)c2ccc(O)cc12` [Example number 35, 3,9-Dihydroxy-12-[5-(piperidine-1-yl)pentyl]-6,7-dihydro-12H-benzothiepino [5,4-b]indole] the same measures were “Inactive”, 99%, 40 µM and under 0.001.
As for `Oc1ccc2c(c1)SCCc1c-2n(CCCCCN2CCCC2)c2ccc(O)cc12` [Example number 36, 3,9-Dihydroxy-12-[5-(pyrrolidine-1-yl)pentyl]-6,7-dihydro-12H-benzothiepino [5,4-b]indole], the activity at 100 µM in assay [3] came to 118%. The CC50 in the assay on MCF-7 cells (read-out: LC50, Test-4) is 60 µM. Besides, the RBA at estrogen receptors is recorded as under 0.001.
On to `c1ccc2c(c1)SCCc1c-2n(Cc2ccc(OCCN3CCCCC3)cc2)c2ccccc12` [Example number 39, 12-[4-(2-Piperidin-1-yl-ethoxy)benzyl]-6,7-dihydro-12H-benzothiepino [5,4-b]indole], for which the “% Efficacy” value with adult female rats (setting [4]) is recorded as “Inactive”. Also, the activity at 100 µM in assay [3] turned out to be 85%. Moreover, the change in vivo at 10 mg/kg in assay [1] (daily dose 10 mg/kg) was 83.3%. Also, the inhibition in vivo at 10 mg/kg/day in assay [2] came to 3.7%.
Compound `c1ccc2c(c1)OCCc1c-2n(CCCCCN2CCCCC2)c2ccccc12` [Example number 49, 12-[5-(Piperidine-1-yl)pentyl]-6,7-dihydro-12H-benzoxepino[5,4-b]indole] gave a responders at 10 mg/kg with adult female rats (Rattus norvegicus, 240 h, daily dose 10 mg/kg, days 1-7 post-coitum) of 100%. Further, the “% Efficacy” value with adult female rats (daily dose 5 mg/kg, days 1-5 post-coitum) is listed as “Inactive”. Further, the activity at 100 µM in assay [3] amounted to 63%.
Turning to `c1ccc2c(c1)OCCc1c-2n(CCCCCCN2CCCCC2)c2ccccc12` [Example number 51, 12-[6-(Piperidine-1-yl)hexyl]-6,7-dihydro-12H-benzoxepino[5,4-b]indole], in the assay on adult female rats (setting [4]), the “% Efficacy” value was “Inactive”. For the same compound, the change in vivo at 3 mg/kg in assay [1] amounted to 21.9%. The change in vivo at 10 mg/kg in assay [1] (daily dose 10 mg/kg) came out at 20%. In assay [2], the inhibition in vivo at 10 mg/kg/day came out at 14%. The CC50 in the assay on MCF-7 cells (read-out: LC50, Test-1) is 22.3 µM; in the assay with MCF-7 cells (read-out: LC50, Test-3) it was 12.8 µM. The RBA at estrogen receptors came out at 0.059.
